Source: PubChem BioAssay AID256 (DTP/NCI, 2004)
Toxic doses and inconclusive results are not listed. How the source made its calls: active means survival T/C of 150% or more; inactive means T/C below 125% in these data.

Tested on: CD2F1 mice, L1210 leukemia ip, survival T/C
Experiment: NCI In Vivo Anticancer Drug Screen. Data for tumor model L1210 Leukemia (intraperitoneal) in CD2F1 (CDF1) mice
Settings: higher = longer survival
How it was run: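 In this screen, transplantable tumors were grown in mice given either the compound or its vehicle. Results were expressed as the treated measurement relative to the control measurement.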

[1] = endpoint: mean survival time, dose: 50.0 mg/kg/injection, schedule: Q01DX009 (ip), vehicle: saline with Tween-80
[2] = endpoint: mean survival time, dose: 100.0 mg/kg/injection, schedule: Q01DX009 (ip), vehicle: saline with Tween-80
[3] = endpoint: mean survival time, dose: 100.0 mg/kg/injection, schedule: Q04DX003 (ip), vehicle: saline with Tween-80
[4] = endpoint: mean survival time, dose: 200.0 mg/kg/injection, schedule: Q01DX009 (ip), vehicle: saline with Tween-80
[5] = endpoint: mean survival time, dose: 200.0 mg/kg/injection, schedule: Q04DX003 (ip), vehicle: saline with Tween-80
[6] = endpoint: mean survival time, dose: 100.0 mg/kg/injection, schedule: Q01DX001 (ip), vehicle: saline with Tween-80
[7] = endpoint: mean survival time, dose: 200.0 mg/kg/injection, schedule: Q01DX001 (ip), vehicle: saline with Tween-80
[8] = endpoint: mean survival time, dose: 400.0 mg/kg/injection, schedule: Q01DX001 (ip), vehicle: saline with Tween-80
[9] = endpoint: mean survival time, dose: 12.5 mg/kg/injection, schedule: Q01DX005 (ip), vehicle: water
[10] = endpoint: mean survival time, dose: 25.0 mg/kg/injection, schedule: Q01DX005 (ip), vehicle: water
[11] = endpoint: mean survival time, dose: 50.0 mg/kg/injection, schedule: Q01DX005 (ip), vehicle: water
[12] = endpoint: mean survival time, dose: 100.0 mg/kg/injection, schedule: Q01DX005 (ip), vehicle: water
[13] = endpoint: mean survival time, dose: 200.0 mg/kg/injection, schedule: Q01DX005 (ip), vehicle: water
[14] = endpoint: mean survival time, dose: 400.0 mg/kg/injection, schedule: Q04DX003 (ip), vehicle: saline with Tween-80
[15] = endpoint: mean survival time, dose: 25.0 mg/kg/injection, schedule: Q01DX009 (ip), vehicle: saline with Tween-80
[16] = endpoint: mean survival time, dose: 100.0 mg/kg/injection, schedule: Q01DX009 (ip), vehicle: Klucel (hydroxypropylcellulose) (HPC)
[17] = endpoint: mean survival time, dose: 200.0 mg/kg/injection, schedule: Q01DX009 (ip), vehicle: Klucel (hydroxypropylcellulose) (HPC)

Measured: T/C

N#CCc1c(C(N)=O)ncn1C1OC(COP(=O)(O)O)C(O)C1O (stereo not given)
inactive: endpoint: median survival time, dose: 12.5 mg/kg/injection, schedule: Q01DX005 (ip), vehicle: water 109 % of control | endpoint: median survival time, dose: 25.0 mg/kg/injection, schedule: Q01DX005 (ip), vehicle: water 104 % of control | endpoint: median survival time, dose: 50.0 mg/kg/injection, schedule: Q01DX005 (ip), vehicle: water 103 % of control | endpoint: median survival time, dose: 100.0 mg/kg/injection, schedule: Q01DX005 (ip), vehicle: water 97 % of control | endpoint: median survival time, dose: 200.0 mg/kg/injection, schedule: Q01DX005 (ip), vehicle: water 97 % of control

C[CH2][Sn]([Cl])([Cl])[Cl].Oc1ccccc1C=NCCN=Cc1ccccc1O
inactive: [1] 100 % of control | [2] 95 % of control | [3] 98 % of control | [4] 97 % of control | [5] 89 % of control

O=C(O)/C=C\SCCCC(=O)O
inactive: [6] 94 % of control | [7] 111 % of control | [8] 103 % of control

Nc1ccn(C2OC(CO)C3OP(=O)(O)OC32)c(=O)n1 (stereo not given)
inactive: [9] 96 % of control | [10] 99 % of control | [11] 99 % of control | [12] 94 % of control | [13] 96 % of control

O=C(CBr)c1cccnc1
inactive: endpoint: mean survival time, dose: 6.25 mg/kg/injection, schedule: Q04DX003 (ip), vehicle: saline 95 % of control | endpoint: mean survival time, dose: 12.5 mg/kg/injection, schedule: Q04DX003 (ip), vehicle: saline 98 % of control | endpoint: mean survival time, dose: 25.0 mg/kg/injection, schedule: Q04DX003 (ip), vehicle: saline 101 % of control

CCOP(=O)(OCC)C(c1ccccc1)(c1ccccc1)c1ccccc1
inactive: endpoint: mean survival time, dose: 100.0 mg/kg/injection, schedule: Q01DX001 (ip), vehicle: Klucel (hydroxypropylcellulose) (HPC) 103 % of control | endpoint: mean survival time, dose: 200.0 mg/kg/injection, schedule: Q01DX001 (ip), vehicle: Klucel (hydroxypropylcellulose) (HPC) 96 % of control | endpoint: mean survival time, dose: 400.0 mg/kg/injection, schedule: Q01DX001 (ip), vehicle: Klucel (hydroxypropylcellulose) (HPC) 102 % of control

CCC(Cc1ccccc1)C(=O)O (stereo not given)
inactive: endpoint: mean survival time, dose: 100.0 mg/kg/injection, schedule: Q04DX003 (ip), vehicle: saline 108 % of control | endpoint: mean survival time, dose: 200.0 mg/kg/injection, schedule: Q04DX003 (ip), vehicle: saline 97 % of control | endpoint: mean survival time, dose: 400.0 mg/kg/injection, schedule: Q04DX003 (ip), vehicle: saline 97 % of control

CC(OC(=O)c1ccccc1)c1ccccc1 (stereo not given)
inactive: [2] 95 % of control | [3] 96 % of control | [4] 105 % of control | [5] 105 % of control | endpoint: mean survival time, dose: 400.0 mg/kg/injection, schedule: Q01DX009 (ip), vehicle: saline with Tween-80 112 % of control | [14] 94 % of control

O=c1[nH]c(=S)ccn1C1OC(COP(=O)(O)O)C(O)C1O (stereo not given)
inactive: [9] 98 % of control | [10] 103 % of control | [11] 103 % of control | [12] 103 % of control | [13] 103 % of control

O=C1NC(=O)C(c2ccccc2)(C2CCCC2)N1 (stereo not given)
inactive: endpoint: mean survival time, dose: 50.0 mg/kg/injection, schedule: Q04DX003 (ip), vehicle: Klucel (hydroxypropylcellulose) (HPC) 104 % of control | endpoint: mean survival time, dose: 100.0 mg/kg/injection, schedule: Q04DX003 (ip), vehicle: Klucel (hydroxypropylcellulose) (HPC) 98 % of control | endpoint: mean survival time, dose: 200.0 mg/kg/injection, schedule: Q04DX003 (ip), vehicle: Klucel (hydroxypropylcellulose) (HPC) 95 % of control

Cc1cccc(C)c1C1=NCCN1
inactive: endpoint: mean survival time, dose: 12.5 mg/kg/injection, schedule: Q01DX009 (ip), vehicle: saline with Tween-80 98 % of control | [15] 98 % of control | [1] 98 % of control

CC1(C)C/C(=C\c2ccc([N+](=O)[O-])cc2)C(=O)c2ccccc21
inactive: endpoint: mean survival time, dose: 12.5 mg/kg/injection, schedule: Q01DX009 (ip), vehicle: Klucel (hydroxypropylcellulose) (HPC) 102 % of control | endpoint: mean survival time, dose: 25.0 mg/kg/injection, schedule: Q01DX009 (ip), vehicle: Klucel (hydroxypropylcellulose) (HPC) 98 % of control | endpoint: mean survival time, dose: 50.0 mg/kg/injection, schedule: Q01DX009 (ip), vehicle: Klucel (hydroxypropylcellulose) (HPC) 96 % of control | [16] 98 % of control | [17] 93 % of control | endpoint: mean survival time, dose: 400.0 mg/kg/injection, schedule: Q01DX009 (ip), vehicle: Klucel (hydroxypropylcellulose) (HPC) 94 % of control

C[n+]1ccc(Nc2ccc(NC(=O)c3ccc(Nc4ccnc5ccc([N+](=O)[O-])cc45)cc3[N+](=O)[O-])cc2)cc1
inactive: [6] 96 % of control | [7] 95 % of control | [8] 93 % of control

CCCCN=C=C(c1ccccc1)c1ccccc1
inactive: endpoint: mean survival time, dose: 25.0 mg/kg/injection, schedule: Q04DX002 (ip), vehicle: other 97 % of control | endpoint: mean survival time, dose: 50.0 mg/kg/injection, schedule: Q04DX002 (ip), vehicle: other 86 % of control | endpoint: mean survival time, dose: 100.0 mg/kg/injection, schedule: Q04DX002 (ip), vehicle: other 89 % of control

C/C(=N\NC(=O)c1ccccc1O)c1cccc(/C(C)=N/NC(=O)c2ccccc2O)n1
inactive: endpoint: median survival time, dose: 3.0 mg/kg/injection, schedule: Q01DX009 (ip), vehicle: saline 101 % of control | endpoint: median survival time, dose: 6.0 mg/kg/injection, schedule: Q01DX009 (ip), vehicle: saline 106 % of control | endpoint: median survival time, dose: 12.0 mg/kg/injection, schedule: Q01DX009 (ip), vehicle: saline 101 % of control | endpoint: median survival time, dose: 25.0 mg/kg/injection, schedule: Q01DX009 (ip), vehicle: saline 93 % of control

COc1ccc(CC2=NCCN2)cc1
inactive: [15] 98 % of control | [1] 98 % of control | [2] 98 % of control

CCOC(=O)c1cnc[nH]c1=O
inactive: [3] 104 % of control | [5] 104 % of control | [14] 96 % of control

O=C(Cc1ccccc1)c1ccccc1
inactive: [6] 102 % of control | [7] 102 % of control | [8] 94 % of control

O=c1[nH]c(=O)n(C2OC(CO)C3OP(=O)(C45CC6CC(CC(C6)C4)C5)OC32)cc1Br (stereo not given)
inactive: endpoint: mean survival time, dose: 12.5 mg/kg/injection, schedule: Q01DX005 (ip), vehicle: other 93 % of control | endpoint: mean survival time, dose: 25.0 mg/kg/injection, schedule: Q01DX005 (ip), vehicle: other 97 % of control | endpoint: mean survival time, dose: 50.0 mg/kg/injection, schedule: Q01DX005 (ip), vehicle: other 93 % of control | endpoint: mean survival time, dose: 100.0 mg/kg/injection, schedule: Q01DX005 (ip), vehicle: other 93 % of control | endpoint: mean survival time, dose: 200.0 mg/kg/injection, schedule: Q01DX005 (ip), vehicle: other 93 % of control

CCCCCCCC/C=C/CCCCCCCC1=NCCN1CCO
inactive: endpoint: mean survival time, dose: 100.0 mg/kg/injection, schedule: Q04DX002 (ip), vehicle: saline with Tween-80 95 % of control | endpoint: mean survival time, dose: 200.0 mg/kg/injection, schedule: Q04DX002 (ip), vehicle: saline with Tween-80 103 % of control | endpoint: mean survival time, dose: 400.0 mg/kg/injection, schedule: Q04DX002 (ip), vehicle: saline with Tween-80 100 % of control

OC(CCl)Cc1ccccc1 (stereo not given)
inactive: [3] 95 % of control

CCOC(=O)C1=C(C)NC(C)=C(C(=O)OCC)C1c1cccc([N+](=O)[O-])c1
inactive: [16] 105 % of control | [17] 91 % of control
